In patent US10428083B2, “Heterocyclylmethyl-thienouracile as antagonists of the adenosine-A2B-receptor” (BAYER PHARMA AKTIENGESELLSCHAFT, priority 2015, dated 2019):

These compounds were tested against human adenosine A2b receptor (Homo sapiens (Human), UniProt P29275) (assay: Cellular in vitro reporter gene test for A2b receptor activity (CHO-K1, CRE-luciferase, NECA stimulation)). Conditions: recombinant CHO-K1 cell line, CRE-luciferase reporter, antagonism of EC50 concentration of NECA; in some cases means of several determinations, rounded to two significant figures; read-out: A2b receptor IC50.
Chain of human adenosine A2b receptor (P29275 whole entry): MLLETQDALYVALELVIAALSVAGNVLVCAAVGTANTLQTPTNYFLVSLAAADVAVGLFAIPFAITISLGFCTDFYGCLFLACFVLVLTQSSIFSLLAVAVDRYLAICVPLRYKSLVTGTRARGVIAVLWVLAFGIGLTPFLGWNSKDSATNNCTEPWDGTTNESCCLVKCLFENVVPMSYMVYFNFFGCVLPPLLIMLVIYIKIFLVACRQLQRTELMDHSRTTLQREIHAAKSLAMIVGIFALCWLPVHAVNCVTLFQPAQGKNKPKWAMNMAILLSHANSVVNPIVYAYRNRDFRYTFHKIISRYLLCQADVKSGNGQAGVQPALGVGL
Format: cell-based
Outline: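 CHO-K1 cells with CRE-driven luciferase; antagonists co-incubated with NECA at its EC50, determined in a pre-experiment on each test day. Luciferase read by luminescence 3 h after NECA addition.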

Compound | IC50 [nM]
C=CCn1cnn(Cc2sc3c(c2C)c(=O)n(CC)c(=O)n3CCOC)c1=O [Example 112, 6-[(4-Allyl-5-oxo-4,5-dihydro-1H-1,2,4-triazol-1-yl)methyl]-3-ethyl-1-(2-methoxyethyl)-5-methylthieno[2,3-d]pyrimidine-2,4(1H,3H)-dione] | 500
CCn1c(=O)c2c(C)c(Cn3nc[nH]c3=O)sc2n(CCOC)c1=O [Example 114, 3-Ethyl-1-(2-methoxyethyl)-5-methyl-6-[(5-oxo-4,5-dihydro-1H-1,2,4-triazol-1-yl)methyl]thieno[2,3-d]pyrimidine-2,4(1H,3H)-dione] | 39
CCn1c(=O)c2c(C)c(CN3CCNC3=NC#N)sc2n(CCOC)c1=O [Example 117, [1-{[3-Ethyl-1-(2-methoxyethyl)-5-methyl-2,4-dioxo-1,2,3,4-tetrahydrothieno[2,3-d]pyrimidin-6-yl]methyl}imidazolidin-2-ylidene]cyanamide] | 5.2
CCn1c(=O)c2c(C)c(CN3CCNC(=O)C3=O)sc2n(CCOC)c1=O [Example 120, 6-[(2,3-Dioxopiperazin-1-yl)methyl]-3-ethyl-1-(2-methoxyethyl)-5-methylthieno[2,3-d]pyrimidine-2,4(1H,3H)-dione] | 12
Cc1c(CN2CCNC(=O)C2=O)sc2c1c(=O)n(CC(C)C)c(=O)n2CCCF [Example 121, 6-[(2,3-Dioxopiperazin-1-yl)methyl]-1-(3-fluoropropyl)-3-isobutyl-5-methylthieno[2,3-d]pyrimidine-2,4(1H,3H)-dione] | 20
Cc1c(CN2CCNC(=O)C2=O)sc2c1c(=O)n(CC(F)(F)F)c(=O)n2CCC(F)(F)F [Example 122, 6-[(2,3-Dioxopiperazin-1-yl)methyl]-5-methyl-3-(2,2,2-trifluoroethyl)-1-(3,3,3-trifluoropropyl)thieno[2,3-d]pyrimidine-2,4(1H,3H)-dione] | 3.9
Cc1c(CN2CCNC(=O)C2=O)sc2c1c(=O)n(CC(F)(F)F)c(=O)n2C [Example 124, 6-[(2,3-Dioxopiperazin-1-yl)methyl]-1,5-dimethyl-3-(2,2,2-trifluoroethyl)thieno[2,3-d]pyrimidine-2,4(1H,3H)-dione] | 60
Cc1c(CN2CCNC(=O)C2=O)sc2c1c(=O)n(CC(F)F)c(=O)n2CCC(F)(F)F [Example 125, 3-(2,2-Difluoroethyl)-6-[(2,3-dioxopiperazin-1-yl)methyl]-5-methyl-1-(3,3,3-trifluoropropyl)thieno[2,3-d]pyrimidine-2,4(1H,3H)-dione] | 8.8
CCn1c(=O)c2c(C)c(CN3CC[C@@H](O)C3=O)sc2n(CCC(F)(F)F)c1=O [Example 126, 3-Ethyl-6-{[(3R)-3-hydroxy-2-oxopyrrolidin-1-yl]methyl}-5-methyl-1-(3,3,3-trifluoropropyl)thieno[2,3-d]pyrimidine-2,4(1H,3H)-dione] | 3.9
CCn1c(=O)c2c(C)c(Cn3[nH]ccc3=O)sc2n(CCC(F)(F)F)c1=O [Example 127, 3-Ethyl-5-methyl-6-[(5-oxo-2,5-dihydro-1H-pyrazol-1-yl)methyl]-1-(3,3,3-trifluoropropyl)thieno[2,3-d]pyrimidine-2,4(1H,3H)-dione] | 5.6
CCn1c(=O)c2c(C)c(Cn3[nH]ccc3=O)sc2n(CCOC)c1=O [Example 128, 3-Ethyl-1-(2-methoxyethyl)-5-methyl-6-[(5-oxo-2,5-dihydro-1H-pyrazol-1-yl)methyl]thieno[2,3-d]pyrimidine-2,4(1H,3H)-dione] | 4.7
Cc1c(Cn2[nH]ccc2=O)sc2c1c(=O)n(C(C)C)c(=O)n2CCC(F)(F)F [Example 132, 3-Isopropyl-5-methyl-6-[(5-oxo-2,5-dihydro-1H-pyrazol-1-yl)methyl]-1-(3,3,3-trifluoropropyl)thieno[2,3-d]pyrimidine-2,4(1H,3H)-dione] | 20
COCCn1c(=O)n(C(C)C)c(=O)c2c(C)c(Cn3[nH]ccc3=O)sc21 [Example 133, 3-Isopropyl-1-(2-methoxyethyl)-5-methyl-6-[(5-oxo-2,5-dihydro-1H-pyrazol-1-yl)methyl]thieno[2,3-d]pyrimidine-2,4(1H,3H)-dione] | 26
CCn1c(=O)c2c(C)c(CN3CCNC3=S)sc2n(CC(F)F)c1=O [Example 137, 1-(2,2-Difluoroethyl)-3-ethyl-5-methyl-6-[(2-thioxoimidazolidin-1-yl)methyl]thieno[2,3-d]pyrimidine-2,4(1H,3H)-dione] | 10
CCn1c(=O)c2c(C)c(CN3CCNC3=S)sc2n(CCOC2CC2)c1=O [Example 138, 1-[2-(Cyclopropyloxy)ethyl]-3-ethyl-5-methyl-6-[(2-thioxoimidazolidin-1-yl)methyl]thieno[2,3-d]pyrimidine-2,4(1H,3H)-dione] | 12
Cc1c(CN2CCNC2=S)sc2c1c(=O)n(CC(C)C)c(=O)n2CC(F)F [Example 143] | 3
Cc1c(CN2CCNC2=S)sc2c1c(=O)n(CC(C)C)c(=O)n2CCCF [Example 144, 1-(3-Fluoropropyl)-3-isobutyl-5-methyl-6-[(2-thioxoimidazolidin-1-yl)methyl]thieno[2,3-d]pyrimidine-2,4(1H,3H)-dione] | 1.5
CCOCCn1c(=O)n(CC(C)C)c(=O)c2c(C)c(CN3CCNC3=S)sc21 [Example 145, 1-(2-Ethoxyetyl)-3-isobutyl-5-methyl-6-[(2-thioxoimidazolidin-1-yl)methyl]thieno[2,3-d]pyrimidine-2,4(1H,3H)-dione] | 14
Cc1c(CN2CCNC2=S)sc2c1c(=O)n(CC(C)(C)C)c(=O)n2CCC(F)(F)F [Example 149, 3-(2,2-Dimethylpropyl)-5-methyl-6-[(2-thioxoimidazolidin-1-yl)methyl]-1-(3,3,3-trifluoropropyl)thieno[2,3-d]pyrimidine-2,4(1H,3H)-dione] | 5.1
Cc1c(CN2CCNC2=S)sc2c1c(=O)n(CC(C)(C)C)c(=O)n2CCCF [Example 150, 3-(2,2-Dimethylpropyl)-1-(3-fluoropropyl)-5-methyl-6-[(2-thioxoimidazolidin-1-yl)methyl]thieno[2,3-d]pyrimidine-2,4(1H,3H)-dione] | 6
COCCn1c(=O)n(CC(C)(C)C)c(=O)c2c(C)c(CN3CCNC3=S)sc21 [Example 151, 3-(2,2-Dimethylpropyl)-1-(2-methoxyethyl)-5-methyl-6-[(2-thioxoimidazolidin-1-yl)methyl]thieno[2,3-d]pyrimidine-2,4(1H,3H)-dione] | 5.7
Cc1c(CN2CCNC2=S)sc2c1c(=O)n(CC(F)(F)F)c(=O)n2CCC(F)(F)F [Example 152, 5-Methyl-6-[(2-thioxoimidazolidin-1-yl)methyl]-3-(2,2,2-trifluoroethyl)-1-(3,3,3-trifluoropropyl)thieno[2,3-d]pyrimidine-2,4(1H,3H)-dione] | 0.79
CCOCCn1c(=O)n(CC(F)(F)F)c(=O)c2c(C)c(CN3CCNC3=S)sc21 [Example 153, 1-(2-Ethoxyethyl)-5-methyl-6-[(2-thioxoimidazolidin-1-yl)methyl]-3-(2,2,2-trifluoroethyl)thieno[2,3-d]pyrimidine-2,4(1H,3H)-dione] | 6.4
Cc1c(CN2CCNC2=S)sc2c1c(=O)n(CC(F)(F)F)c(=O)n2CC1COC1 [Example 158, 5-Methyl-1-(oxetan-3-ylmethyl)-6-[(2-thioxoimidazolidin-1-yl)methyl]-3-(2,2,2-trifluoroethyl)thieno[2,3-d]pyrimidine-2,4(1H,3H)-dione] | 5.5
